Experiments:
filtration bleb [1] = conditions: previous rabbit studies; cited from earlier work
patients [2] = conditions: human, in vivo; cited from earlier work
control eye = test: Toxicity: control eye examination and adverse events (Example 2); type: in vivo, rabbit; conditions: for Fibrin clot within the first four days: resolved without sequelae by end of first week
Text: (§1) The control eye received the same photosensitizer and irradiation subconjunctivally as the surgical eye, but without a fistula being created. The control eye was used to test toxicity and as a basis for detecting a decrease in IOP for the surgical eye. The time at which the BPD-MA was applied was varied, as follows:
(§2) Postoperatively at day 0 and every two days following surgery, the rabbits were examined with slit lamp biomicroscopy to evaluate filtration bleb extent, filtration bleb height, conjuctival erythema over the bleb, anterior chamber cell flare, and anterior chamber depth. Applanation tonometry to measure IOP following topical anesthesia. A subjective ocular discomfort assessment was also performed by determining animal comfort and eating habits, in accordance with the grading scale shown below:
In FIGS. 3, 4 and 5, a statistical difference was observed between groups (P ,0.001). The bleb height and extent, as well as other slit lamp characteristics, were analyzed by a chi-square test. Adverse events also were analyzed by a chi-square test. A Cox Proportional Hazard Model was used to evaluate for parameters that most accurately predicted filtration bleb survival on each examination day.

filtration bleb [3] = test: Times of PDT administration, full thickness filtration surgery (Example 2); type: in vivo, rabbit
Method: The photosensitizer used in the example was prepared as follows: A liposomally formulated benzoporphyrin derivative, monoacid ring A, BPD-MA or BPD-verteporfin was supplied by QLT PhotoTherapeutics, Inc. as a lyophilized powder and was reconstituted with sterile distilled water shortly before use. The BPD was reconstituted to 1.98 mg/mL was used to saturate the 3 mm cut end of a Weck cell. In control groups, the Weck cell was saturated with basic salt solution (“BSS”).
On day 0, full thickness filtration surgery was performed on one randomly selected eye in 48 rabbits, 12 in each of four groups. In each rabbit, the untreated other eye served as a control. The filtration procedure was performed in the following manner: Each animal was anesthetized with a mixture of ketamine and xylazine. A wire speculum was used to separate the eyelids. […] Following creation of the fornix-based flap, the Weck cell saturated with BPD-MA (or BSS placebo) was placed on the sclera posterior to the limbus where the fistula was to be created. The conjunctiva was draped over the Weck Cell. The Weck cell thus rested between the conjunctiva and sclera, also coming into contact with the episclera and Tenon's capsule, for two minutes. The Weck cell was then removed and the area was irrigated with BSS. Instruments and gloves were also rinsed before entering the eye, and a 1.0 mm trephine was used to enter the anterior chamber.
The conjunctival flap was then secured to the limbus using two 7-0 vicryl sutures. […] The light source was used at a maximum output ([…]), which provided a total dosage of approximately 7.2 J.
A drop of tobramycin was then placed into each eye following surgery. Tobramycin and prednisolone acetate were instilled in both eyes four times a day for one week following surgery.
as §1
BPD treatment at 48 hours post surgery consisted of the application of the 3 mm cut end of a Weck cell saturated with a 2 mg/mL aqueous solution of BPD-MA (or placebo) laid on the conjunctiva over the filtration bleb for two minutes, followed by washing out the excess photosensitizer and exposure to red LED light having a wavelength of 688 nm for one minute.
as §2
Bleb survival was assessed by the extent and height of the bleb and by IOP as compared with the control eye. The degree of the inflammatory response was determined by erythema over the filtration bleb and was scored on a scale of 0-3. Rabbits were terminated when bleb failure was noted, i.e., when the intraocular pressure in the surgical eye equaled that of the control eye and the filtration bleb was flat.

filtration bleb [4] = test: Pilot light dosing of topical BPD-MA PDT during filtration surgery (Example 1); type: in vivo, rabbit
Method: Filtration surgery was performed on one eye in six normal rabbits. A Weck cell sponge was saturated with a 2 mg/mL aqueous solution of the photosensitizer benzoporphyrin derivative monoacid ring A (BPD-MA, also known as “BPD-verteporfin”). During surgery, the saturated Weck cell was used to apply BPD-MA topically for two minutes to the sclera and conjunctiva in the surgical field. After washing out the excess drug with BSS, both the sclera and conjunctiva were exposed to red light having a wavelength of about 690 nm, which was delivered by a light emitting diode (“LED”) placed at a distance of about 1 cm from the tissue to be irradiated. Each of the six rabbits used in this experiment received a different dose of light, specifically, 0, 3, 6, 12, 18 and 24 J/cm^2 over a 30-second to 4-minute time period. The treated rabbits were followed for 11-12 days after surgery by determining filtration bleb height, bleb vascularity (indicative of inflammation), and reduction in intraocular pressure (“IOP”). The data obtained on day 5 and day 11 are shown below in Tables 1A and 1B respectively.

filtration bleb [5] = type: in vivo
Method: At day 7, one rabbit from each group and, following bleb failure, two rabbits from each group, were sacrificed to undergo histologic and transmission electron microscopic (“TEM”) analysis. Histologic evaluation was performed after first fixing the cadaver eyes with 10% buffered neutral formalin. The eyes were processed, sectioned, and then stained with hematoxylin and eosin, as well as Masson's Trichrome. The specimens were examined in a masked fashion by an independent observer.
Transmission electron microscopy was performed by fixing tissue samples in 2.5% glutaraldehyde buffered with 0.1 M cacodylate containing 7% sucrose. Tissues were post fixed for one hour with 2% osmium tetroxide and dehydrated through graded alcohol concentrations to 100% ethanol. The 2×5 mm tissue blocks were then infiltrated with catalyzed epoxy resin. Thick sections (0.5 μm) were cut and stained with toluidine blue and examined by light microscopy to determine appropriate areas. Thin section (80 nm) were then cut, picked up on copper grids, and stained with uranyl acetate and lead citrate for TEM evaluation. A Hitachi H7000 transmission electron microscope was used to examine these sections.

ocular fibroblasts = conditions: cited from earlier work
bleb scarring = conditions: in vivo; cited from earlier work
patients [6] = conditions: topical ointment postoperatively; cited from earlier work
[7] = postoperative day 5, irradiation time 30 seconds
[8] = postoperative day 5, irradiation time 1 minute
[9] = postoperative day 5, irradiation time 2 minutes
[10] = postoperative day 5, irradiation time 3 minutes
[11] = postoperative day 11, irradiation time 30 seconds
[12] = postoperative day 11, irradiation time 1 minute
[13] = postoperative day 11, irradiation time 2 minutes
[14] = postoperative day 11, irradiation time 3 minutes
[15] = day 7, eyes that received BPD at surgery

Compound: CO[C@@]12[C@H](COC(N)=O)C3=C(C(=O)C(C)=C(N)C3=O)N1C[C@@H]1N[C@@H]12 [Mitomycin-C]
- Filtration Bleb Survival (mean days ± SD) (filtration bleb [1]): 34.8 ± 28.8 days
- Filtration Bleb Survival [range] (filtration bleb [1]): 6 to 23.2 days
- Ocular hypotony (IOP less than 5 or 6 mm Hg), fraction of patients treated (patients [2]): ⅓
- Probability of late-onset bleb leaks (patients [2]): around 25%

Compound: benzoporphyrin derivative monoacid ring A [BPD-MA]
- Fibrin clot within the first four days (control eye; Group 2): three
- Fibrin clot within the first four days (control eye; Group 3): three
- Adverse events (control eye; all groups): few and not related specifically to the use of the photosensitizer
- Anterior segment ocular exam of control eye, placebo versus BPD-treated (control eye; control eye, P>0.05): no differences between the placebo and BPD-treated eyes
- Inflammatory response (erythema over the bleb) (filtration bleb [3]; BPD and light at relatively low doses, especially during surgery): prevented the development of inflammation
- Bleb survival in comparison with placebo control or treatment only at 48 hours (filtration bleb [3]; BPD and light during surgery (Groups 2 and 4)): prolonged bleb survival
- IOP (ANOVA) (filtration bleb [3]; BPD given intraoperatively, P=0.057): trend toward lower IOP
- Mean (±SD) filtration bleb survival time (filtration bleb [3]; Group 2: BPD treatment during surgery, placebo 48 hours post surgery): 23.8 ± 12 days
- Erythema over the bleb (filtration bleb [3]; Group 3 (BPD only at 48 hours), FIG. 5): higher inflammatory response
- Mean (±SD) filtration bleb survival time (filtration bleb [3]; Group 3: placebo during surgery, BPD treatment 48 hours post surgery): 10.1 ± 9 days
- Effect of second treatment with BPD and light at 48 hours (filtration bleb [3]; Group 4): did not appear to have any additional effect
- Mean (±SD) filtration bleb survival time (filtration bleb [3]; Group 4: BPD treatment during surgery and 48 hours post surgery): 23.2 ± 8 days
- Extent and height of the bleb (filtration bleb [3]; up to 12 days postoperatively, FIG. 3, FIG. 4): indicated the effectiveness of low-dose PDT treatment during surgery
- Filtration bleb survival compared to previous rabbit studies (filtration bleb [3]; versus Table 2 literature values): prolonged the filtration bleb survival compared to normal controls, Ara-A and 5-fluorouracil
- Life of the filtration bleb compared with mitomycin C studies (filtration bleb [3]; versus literature): longer that in some rabbits who received mitomycin C
- Survival of the filtration bleb versus light dose (filtration bleb [4]; light doses 0-24 J/cm^2): longest in eyes treated with light at a medium range of doses
- Bleb Height (filtration bleb [4]; [7]): Small
- Bleb Vascularity (filtration bleb [4]; [7]): Vascular
- IOP Decrease (filtration bleb [4]; postoperative day 5, irradiation time 30 seconds, 2 mg/mL topical 2 min, 690 nm light): Minimal
- Bleb Height (filtration bleb [4]; [8]): Maximum
- Bleb Vascularity (filtration bleb [4]; [8]): Avascular
- IOP Decrease (filtration bleb [4]; postoperative day 5, irradiation time 1 minute, 2 mg/mL topical 2 min, 690 nm light): >20 mm Hg
- Bleb Height (filtration bleb [4]; [9]): Maximum
- Bleb Vascularity (filtration bleb [4]; [9]): Avascular'
- IOP Decrease (filtration bleb [4]; postoperative day 5, irradiation time 2 minutes, 2 mg/mL topical 2 min, 690 nm light): 20 mm Hg
- Bleb Height (filtration bleb [4]; [10]): Small
- Bleb Vascularity (filtration bleb [4]; [10]): Vascular
- IOP Decrease (filtration bleb [4]; postoperative day 5, irradiation time 3 minutes, 2 mg/mL topical 2 min, 690 nm light): 2.5 mm Hg
- Bleb Vascularity (filtration bleb [4]; postoperative day 5, irradiation time 4 minutes): Vascular
- IOP Decrease (filtration bleb [4]; postoperative day 5, irradiation time 4 minutes, 2 mg/mL topical 2 min, 690 nm light): 0-4 mm Hg
- Bleb Height (filtration bleb [4]; [11]): Minimal
- Bleb Vascularity (filtration bleb [4]; [11]): Vascular
- IOP Decrease (filtration bleb [4]; [11]): 2.3 mm Hg
- Bleb Height (filtration bleb [4]; [12]): Maximum
- Bleb Vascularity (filtration bleb [4]; [12]): Avascular
- IOP Decrease (filtration bleb [4]; [12]): >20 mm Hg
- Bleb Height (filtration bleb [4]; [13]): Maximum
- Bleb Vascularity (filtration bleb [4]; [13]): Avascular'
- IOP Decrease (filtration bleb [4]; [13]): >20 mm Hg
- Bleb Height (filtration bleb [4]; [14]): Low
- Bleb Vascularity (filtration bleb [4]; [14]): Vascular
- IOP Decrease (filtration bleb [4]; [14]): 3-4 mm Hg
- Bleb outcome (rabbit sacrificed) (filtration bleb [4]; postoperative day 11, irradiation time 4 minutes): bleb failure
- Light microscopy of filtering bleb (filtration bleb [5]; day 7, BPD only at day 2 (Group 3)): increased lymph channels in addition to the fibroblasts, but no vascular proliferation
- Light microscopy of filtering bleb: fibroblasts, vessels, lymph channels (filtration bleb [5]; [15]): no fibroblasts, vascular increase or lymphocytic channel increase
- Light microscopy of filtering bleb: lymphocytic response (filtration bleb [5]; [15]): mild lymphocytic response
- Histology of eye fistulas (filtration bleb [5]; end of the study (three weeks postoperatively)): only a few lymphocytes and no proliferation of blood vessels at the fistula
- Epithelium finding (filtration bleb [5]; rabbit, in vivo): thinned epithelium
- Histologic and transmission electron microscopic analysis for toxicity (filtration bleb [5]; surgical or control eye): no evidence of toxicity or inflammation apart from the filtration site

Compound: O=c1[nH]cc(F)c(=O)[nH]1 [5-Fluorouracil]
- Filtration Bleb Survival (mean days ± SD) (filtration bleb [1]): 19.5 ± 5.5 days
- Filtration Bleb Survival [range] (filtration bleb [1]): 14 to 25 days

Compound: O=c1[nH]c(=O)n([C@H]2C[C@H](O)[C@@H](CO)O2)cc1F [floxuridine]
- Potency relative to fluorouracil in long-term inhibition of ocular fibroblasts (ocular fibroblasts): about 100 times

Compound: Nc1ncnc2c1ncn2[C@@H]1O[C@H](CO)[C@@H](O)[C@@H]1O [Ara-A]
- Filtration Bleb Survival (mean days ± SD) (filtration bleb [1]): 15.2 ± 1.8 days

Compound: CC(C)(S)[C@@H](N)C(=O)O [D-penicillamine]
- Potency in animal studies (bleb scarring): only limited potency

Compound: Bleomycin
- Filtration Bleb Survival (mean days ± SD) (filtration bleb [1]): 25.5 ± 14.5 days
- Filtration Bleb Survival [range] (filtration bleb [1]): 21 to 50 days

Compound: N#CCCN [BAPN, Beta-aminopropionitrite]
- Patients with IOP kept below 22 mm Hg (patients [6]): 74%
- Potency in animal studies (bleb scarring): only limited potency

Source: patent publication US6677366B2, “Methods, compositions and articles for reducing or preventing the effects of inflammation” (QLT Inc., priority 1997, dated 2004)
